Assay [1] has as its system HUVEC. The assay is described as follows: HUVEC assay, VEGF-stimulated endothelial cell proliferation. It is filed as cell-based. Conditions: Homo sapiens, read-out: IC50 for inhibition of VEGF-stimulated endothelial cell proliferation.
The subject of another assay is range of models. The assay is described as follows: anti-tumour activity in a range of models. It is filed as in vivo. As to conditions: once-daily oral administration.
Assay [2] deals with HUVEC. The assay is described as follows: HUVEC assay, basal endothelial cell proliferation. It is filed as cell-based. As to conditions: Homo sapiens, read-out: IC50 for inhibition of basal endothelial cell proliferation.
A further assay relates to Calu-6 tumour xenograft. The assay can be described thus: Calu-6 tumour xenograft in vivo solid tumour model. Conditions: once-daily oral, 28 days.

Bounds are passed on as bounds.

For `COc1cc2c(Oc3ccc4[nH]c(C)cc4c3F)ncnc2cc1OCCCN1CCCC1` [AZD2171, 4-(4-fluoro-2-methyl-1H-indol-5-yloxy)-6-methoxy-7-(3-(pyrrolidin-1-yl)propoxy)quinazoline], the figures for the IC50 in the assay with HUVEC [1] and in the assay on HUVEC [2] were 0.4 ± 0.2 nM and more than 500 nM, respectively. Besides, the anti-tumour activity entry in the assay with range of models is given as “broad-spectrum anti-tumour activity”. For the same compound, the “inhibition of growth of Calu-6 tumour xenograft” value in the assay with Calu-6 tumour xenograft (1.5 mg/kg/day, P<0.01) came out at 49%; in the assay on Calu-6 tumour xenograft (3 mg/kg/day, P<0.0001), 69%; in the assay with Calu-6 tumour xenograft (6 mg/kg/day, P<0.0001), 91%.

These data come from patent publication US20070135462A1, “Combination therapy” (priority 2004, published 2007).
